From patent US20240239861A1, “GLUCAGON-RECEPTOR SELECTIVE POLYPEPTIDES AND METHODS OF USE THEREOF” (i2O Therapeutics, Inc., priority 2016, published 2024)
pEC50: −log10 of the molar value. Where a SMILES comes first, the peptide text is derived from it. [ ]: non-standard residue; d: D form. Aib = CC(C)(N)C(=O)O

Columns and labels:
[1] = target: human GLP-1R (Homo sapiens, UniProt P43220); test: Peptide-receptor mediated cAMP accumulation (LANCE Ultra cAMP) in CHO-K1 cells transfected with human GLP-1R; assay type: cell-based; details: hGLP1 pEC50 (cAMP mean (n = 3): 11 point curve starting at 1 nM, Table 3)
[2] = in vivo; details: male, rat

human GLP-1R, sequence (P43220 24-463): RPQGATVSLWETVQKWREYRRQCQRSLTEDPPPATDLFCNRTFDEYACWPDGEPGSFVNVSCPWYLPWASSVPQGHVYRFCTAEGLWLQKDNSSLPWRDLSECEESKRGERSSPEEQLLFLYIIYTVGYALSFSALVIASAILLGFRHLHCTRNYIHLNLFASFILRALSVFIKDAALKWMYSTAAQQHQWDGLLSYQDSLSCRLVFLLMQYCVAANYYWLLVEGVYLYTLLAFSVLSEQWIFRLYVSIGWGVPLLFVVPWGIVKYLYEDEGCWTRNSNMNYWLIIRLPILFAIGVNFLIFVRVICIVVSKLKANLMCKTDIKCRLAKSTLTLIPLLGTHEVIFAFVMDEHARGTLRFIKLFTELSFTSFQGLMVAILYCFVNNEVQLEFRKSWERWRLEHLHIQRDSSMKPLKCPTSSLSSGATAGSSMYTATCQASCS

Compound | pEC50 [1] | clearance [2] [mL/min/kg]
CC(C)C[C@H](NC(=O)[C@H](Cc1ccc(O)cc1)NC(=O)[C@H](CCCCN)NC(=O)[C@H](CO)NC(=O)[C@H](Cc1ccc(O)cc1)NC(=O)[C@H](CC(=O)O)NC(=O)[C@H](CO)NC(=O)[C@@H](NC(=O)[C@H](Cc1ccccc1)NC(=O)[C@@H](NC(=O)CNC(=O)[C@H](Cc1c[nH]cn1)NC(=O)[C@H](CO)NC(=O)[C@@H](N)Cc1ccc(O)cc1)[C@@H](C)O)[C@@H](C)O)C(=O)N[C@@H](CC(=O)O)C(=O)NC(C)(C)C(=O)N[C@@H](CCCCN)C(=O)N[C@@H](CCCNC(=N)N)C(=O)N[C@@H](C)C(=O)N[C@@H](CCC(N)=O)C(=O)N[C@@H](CCC(=O)O)C(=O)N[C@@H](Cc1ccccc1)C(=O)N[C@H](C(=O)NC(C)(C)C(=O)N[C@@H](Cc1c[nH]c2ccccc12)C(=O)N[C@@H](CC(C)C)C(=O)N[C@@H](CCC(=O)O)C(=O)N[C@@H](CC(=O)O)C(=O)N[C@@H](CCC(=O)O)C(=O)N[C@@H](CCCCN)C(=O)N[C@@H](CCCNC(=N)N)C(=O)N[C@@H](CC(N)=O)C(=O)N[C@@H](CCCCN)C(=O)N[C@@H](CC(N)=O)C(=O)N1CCC[C@H]1C(=O)N1CCC[C@H]1C(=O)N1CCC[C@H]1C(=O)N[C@@H](CO)C(=O)O)C(C)C [Compound A48] (H-YSHGTFTSDYSKYLD[Aib]KRAQEFV[Aib]WLEDEKRNKNPPPS-OH; N-terminus assumed) | < 9.00 | 37
CC[C@H](C)[C@H](NC(=O)[C@H](CC(=O)O)NC(=O)[C@H](CC(C)C)NC(=O)[C@H](Cc1ccc(O)cc1)NC(=O)[C@H](CCCCN)NC(=O)[C@H](CO)NC(=O)[C@H](Cc1ccc(O)cc1)NC(=O)[C@H](CC(=O)O)NC(=O)[C@H](CO)NC(=O)[C@@H](NC(=O)[C@H](Cc1ccccc1)NC(=O)[C@@H](NC(=O)CNC(=O)[C@H](Cc1c[nH]cn1)NC(=O)[C@H](CO)NC(=O)[C@@H](N)Cc1ccc(O)cc1)[C@@H](C)O)[C@@H](C)O)C(=O)N[C@@H](CCCCN)C(=O)N[C@@H](CCCNC(=N)N)C(=O)N[C@@H](C)C(=O)N[C@@H](CCC(N)=O)C(=O)N[C@@H](CCC(=O)O)C(=O)N[C@@H](Cc1ccccc1)C(=O)N[C@H](C(=O)NC(C)(C)C(=O)N[C@@H](Cc1c[nH]c2ccccc12)C(=O)N[C@@H](CC(C)C)C(=O)N[C@@H](CCC(=O)O)C(=O)N[C@@H](CC(=O)O)C(=O)N[C@@H](CCC(=O)O)C(=O)N1CCC[C@H]1C(=O)N[C@@H](CO)C(=O)N[C@@H](CO)C(=O)NCC(=O)N[C@@H](C)C(=O)N1CCC[C@H]1C(=O)N1CCC[C@H]1C(=O)N1CCC[C@H]1C(=O)N[C@@H](CO)C(=O)O)C(C)C [Compound A52] (H-YSHGTFTSDYSKYLDIKRAQEFV[Aib]WLEDEPSSGAPPPS-OH) | < 9.00 | 29
CC(C)C[C@H](NC(=O)[C@H](Cc1ccc(O)cc1)NC(=O)[C@H](CCCCN)NC(=O)[C@H](CO)NC(=O)[C@H](Cc1ccc(O)cc1)NC(=O)[C@H](CC(=O)O)NC(=O)[C@H](CO)NC(=O)[C@@H](NC(=O)[C@H](Cc1ccccc1)NC(=O)[C@@H](NC(=O)CNC(=O)[C@H](Cc1c[nH]cn1)NC(=O)[C@H](CO)NC(=O)[C@@H](N)Cc1ccc(O)cc1)[C@@H](C)O)[C@@H](C)O)C(=O)N[C@@H](CC(=O)O)C(=O)NC(C)(C)C(=O)N[C@@H](CCCCN)C(=O)N[C@@H](CCCNC(=N)N)C(=O)N[C@@H](C)C(=O)N[C@@H](CCC(N)=O)C(=O)N[C@@H](CCC(=O)O)C(=O)N[C@@H](Cc1ccccc1)C(=O)N[C@H](C(=O)NC(C)(C)C(=O)N[C@@H](Cc1c[nH]c2ccccc12)C(=O)N[C@@H](CC(C)C)C(=O)N[C@@H](CCC(=O)O)C(=O)N[C@@H](CC(=O)O)C(=O)N[C@@H](CCC(=O)O)C(=O)N1CCC[C@H]1C(=O)N[C@@H](CO)C(=O)N[C@@H](CO)C(=O)N[C@@H](CCCCN)C(=O)N[C@@H](CCC(=O)O)C(=O)N1CCC[C@H]1C(=O)N1CCC[C@H]1C(=O)N1CCC[C@H]1C(=O)N[C@@H](CO)C(=O)O)C(C)C [Compound A54] (H-YSHGTFTSDYSKYLD[Aib]KRAQEFV[Aib]WLEDEPSSKEPPPS-OH; N-terminus assumed) | < 9.00 | 24
CC(C)C[C@H](NC(=O)[C@H](Cc1ccc(O)cc1)NC(=O)[C@H](CCCCN)NC(=O)[C@H](CO)NC(=O)[C@H](Cc1ccc(O)cc1)NC(=O)[C@H](CC(=O)O)NC(=O)[C@H](CO)NC(=O)[C@@H](NC(=O)[C@H](Cc1ccccc1)NC(=O)[C@@H](NC(=O)CNC(=O)[C@H](Cc1c[nH]cn1)NC(=O)[C@H](CO)NC(=O)[C@@H](N)Cc1ccc(O)cc1)[C@@H](C)O)[C@@H](C)O)C(=O)N[C@@H](CC(=O)O)C(=O)NC(C)(C)C(=O)N[C@@H](CCCCN)C(=O)N[C@@H](CCCNC(=N)N)C(=O)N[C@@H](C)C(=O)N[C@@H](CCC(N)=O)C(=O)N[C@@H](CCC(=O)O)C(=O)N[C@@H](Cc1ccccc1)C(=O)N[C@H](C(=O)NC(C)(C)C(=O)N[C@@H](Cc1c[nH]c2ccccc12)C(=O)N[C@@H](CC(C)C)C(=O)N[C@@H](CCC(=O)O)C(=O)N[C@@H](CC(=O)O)C(=O)N[C@@H](CCC(=O)O)C(=O)N1CCC[C@H]1C(=O)N[C@@H](CCCCN)C(=O)N[C@@H](CO)C(=O)N[C@@H](CCCCN)C(=O)N[C@@H](C)C(=O)N1CCC[C@H]1C(=O)N1CCC[C@H]1C(=O)N1CCC[C@H]1C(=O)N[C@@H](CO)C(=O)O)C(C)C [Compound A56] (H-YSHGTFTSDYSKYLD[Aib]KRAQEFV[Aib]WLEDEPKSKAPPPS-OH; N-terminus assumed) | < 9.00 | 39.9
CC(C)C[C@H](NC(=O)[C@H](Cc1ccc(O)cc1)NC(=O)[C@H](CCCCN)NC(=O)[C@H](CO)NC(=O)[C@H](Cc1ccc(O)cc1)NC(=O)[C@H](CC(=O)O)NC(=O)[C@H](CO)NC(=O)[C@@H](NC(=O)[C@H](Cc1ccccc1)NC(=O)[C@@H](NC(=O)CNC(=O)[C@H](Cc1c[nH]cn1)NC(=O)[C@H](CO)NC(=O)[C@@H](N)Cc1ccc(O)cc1)[C@@H](C)O)[C@@H](C)O)C(=O)N[C@@H](CC(=O)O)C(=O)NC(C)(C)C(=O)N[C@@H](CCCCN)C(=O)N[C@@H](CCCNC(=N)N)C(=O)N[C@@H](C)C(=O)N[C@@H](CCC(N)=O)C(=O)N[C@@H](CCC(=O)O)C(=O)N[C@@H](Cc1ccccc1)C(=O)N[C@H](C(=O)NC(C)(C)C(=O)N[C@@H](Cc1c[nH]c2ccccc12)C(=O)N[C@@H](CC(C)C)C(=O)N[C@@H](CCC(=O)O)C(=O)N[C@@H](CC(=O)O)C(=O)N[C@@H](CCC(=O)O)C(=O)N1CCC[C@H]1C(=O)N[C@@H](CCCCN)C(=O)N[C@@H](CO)C(=O)N[C@@H](CCCCN)C(=O)N[C@@H](CO)C(=O)N1CCC[C@H]1C(=O)N1CCC[C@H]1C(=O)N1CCC[C@H]1C(=O)N[C@@H](CO)C(=O)O)C(C)C [Compound A58] (H-YSHGTFTSDYSKYLD[Aib]KRAQEFV[Aib]WLEDEPKSKSPPPS-OH; N-terminus assumed) | < 9.00 | 37.7
CC(C)C[C@H](NC(=O)[C@H](Cc1ccc(O)cc1)NC(=O)[C@H](CCCCN)NC(=O)[C@H](CO)NC(=O)[C@H](Cc1ccc(O)cc1)NC(=O)[C@H](CC(=O)O)NC(=O)[C@H](CO)NC(=O)[C@@H](NC(=O)[C@H](Cc1ccccc1)NC(=O)[C@@H](NC(=O)CNC(=O)[C@H](Cc1c[nH]cn1)NC(=O)[C@H](CO)NC(=O)[C@@H](N)Cc1ccc(O)cc1)[C@@H](C)O)[C@@H](C)O)C(=O)N[C@@H](CC(=O)O)C(=O)N[C@@H](CO)C(=O)N[C@@H](C)C(=O)N[C@@H](CCCNC(=N)N)C(=O)N[C@@H](C)C(=O)N[C@@H](CCC(N)=O)C(=O)N[C@@H](CCC(=O)O)C(=O)N[C@@H](Cc1ccccc1)C(=O)N[C@H](C(=O)N[C@@H](CCCCN)C(=O)N[C@@H](Cc1c[nH]c2ccccc12)C(=O)N[C@@H](CC(C)C)C(=O)N[C@@H](CCC(=O)O)C(=O)N[C@@H](CC(=O)O)C(=O)N[C@@H](CCC(=O)O)C(=O)N1CCC[C@H]1C(=O)N[C@@H](CCCCN)C(=O)N[C@@H](CO)C(=O)N[C@@H](CCCCN)C(=O)N[C@@H](CCC(=O)O)C(=O)N1CCC[C@H]1C(=O)N1CCC[C@H]1C(=O)N1CCC[C@H]1C(=O)N[C@@H](CO)C(N)=O)C(C)C [Compound A72] (H-YSHGTFTSDYSKYLDSARAQEFVKWLEDEPKSKEPPPS-NH2) | < 9.00 | 31.3
CC(C)C[C@H](NC(=O)[C@H](Cc1ccc(O)cc1)NC(=O)[C@H](CCCCN)NC(=O)[C@H](CO)NC(=O)[C@H](Cc1ccc(O)cc1)NC(=O)[C@H](CC(=O)O)NC(=O)[C@H](CO)NC(=O)[C@@H](NC(=O)[C@H](Cc1ccccc1)NC(=O)[C@@H](NC(=O)CNC(=O)[C@H](Cc1c[nH]cn1)NC(=O)[C@H](CO)NC(=O)[C@@H](N)Cc1ccc(O)cc1)[C@@H](C)O)[C@@H](C)O)C(=O)N[C@@H](CC(=O)O)C(=O)NC(C)(C)C(=O)N[C@@H](CCCCN)C(=O)N[C@@H](C)C(=O)N[C@@H](C)C(=O)N[C@@H](CCC(N)=O)C(=O)N[C@@H](CCC(=O)O)C(=O)N[C@@H](Cc1ccccc1)C(=O)N[C@H](C(=O)NC(C)(C)C(=O)N[C@@H](Cc1c[nH]c2ccccc12)C(=O)N[C@@H](CC(C)C)C(=O)N[C@@H](CCC(=O)O)C(=O)N[C@@H](CC(=O)O)C(=O)N[C@@H](CCC(=O)O)C(=O)N1CCC[C@H]1C(=O)N[C@@H](CO)C(=O)N[C@@H](CO)C(=O)NCC(=O)N[C@@H](C)C(=O)N1CCC[C@H]1C(=O)N1CCC[C@H]1C(=O)N1CCC[C@H]1C(=O)N[C@@H](CO)C(=O)O)C(C)C [Compound A76] (H-YSHGTFTSDYSKYLD[Aib]KAAQEFV[Aib]WLEDEPSSGAPPPS-OH; N-terminus assumed) | < 9.00 | 15.1
